Here are results for 9 molecules from publication PMC12647645, “Structural interactions of BWC0977 with Klebsiella pneumoniae topoisomerase IV and biochemical basis of its broad-spectrum activity” (Communications Biology, 2025).

The subject of assay [1] is E. coli MG1655 (GyrA WT, ParC WT). Put plainly: microbe, parasite or virus in culture. Particulars: Escherichia coli. It counts as cell-based.
The test system of assay [2] is E. coli MG1655 GyrA D82N, ParC WT. Put plainly: microbe, parasite or virus in culture. The following applies: Escherichia coli. It counts as cell-based.
Assay [3] concerns E. coli MG1655 GyrA WT, ParC D79N. Kind of assay: microbe, parasite or virus in culture. It counts as cell-based. Particulars: Escherichia coli.
In assay [4] the test system is E. coli MG1655 GyrA D82N, ParC D79N. Put plainly: microbe, parasite or virus in culture. The following applies: Escherichia coli. The assay is classed as cell-based.
Assay [5] relates to E. coli MG1655 GyrA M120A, ParC M118A. Put plainly: microbe, parasite or virus in culture. The assay is classed as cell-based. The following applies: Escherichia coli.
Assay [6] relates to E. coli MG1655 GyrA R121K, ParC WT. Kind of assay: microbe, parasite or virus in culture. It counts as cell-based. Particulars: Escherichia coli.
Assay [7] concerns E. coli MG1655 GyrA WT, ParC R119K. Kind of assay: microbe, parasite or virus in culture. The following applies: Escherichia coli. It counts as cell-based.
The target of the next assay is T1, E. coli gyrase (Escherichia coli, UniProt P0AES4+P0AES6).
T1 construct: purchased Inspiralis
Kind of assay: biochemical. The assay is classed as biochemical.

A further assay deals with T2, E. coli topoisomerase IV (Escherichia coli, UniProt P0AFI2+P20083).
T2 construct: purchased Inspiralis
Kind of assay: biochemical. It counts as biochemical. The following applies: read-out: IC50 E. coli topo IV decatenation.

The test system of another assay is A. baumannii ATCC 19606. Put plainly: MIC broth microdilution. The assay is classed as cell-based. The following applies: Acinetobacter baumannii. (Broth dilution looks for growth in wells or tubes with falling amounts of substance.)
Assay [8] concerns A. baumannii ATCC 19606 resistant mutant colonies (mutant 1-5). Kind of assay: microbe, parasite or virus in culture. Particulars: Acinetobacter baumannii. The assay is classed as cell-based.
A further assay concerns the target Human topo IIα (Homo sapiens, UniProt P11388). Put plainly: Human topo IIα decatenation assay. The assay is classed as biochemical. Here is the method: (§1) Human topo IIα (0.9 nM) and topo IIß (2.2 nM) decatenation assays were performed following the same protocol used for bacterial topoisomerase IV decatenation assays. The assay buffer was made of 50 mM Tris. HCl (pH 7.5), 125 mM NaCl, 10 mM MgCl2, 5 mM DTT, and 100 μg/mL albumin.

The target of a further assay is Human topo IIß (Homo sapiens, UniProt Q02880). Put plainly: Human topo IIß decatenation assay. It counts as biochemical. The method, then:
as §1

[9] abbreviates: ATCC19606, WT, Supplementary Table 4, read-out: MIC 90 in (μg/mL), A. baumannii ATCC 19606 (WT).
Setting [10] is: ATCC19606, read-out: MIC 90 in (μg/mL), resistant mutant colony 3.
The mark [11] stands for this setting: ATCC19606, read-out: MIC 90 in (μg/mL), resistant mutant colony 5.
Where [12] appears, read: ATCC19606, read-out: MIC 90 in (μg/mL), resistant mutant colony 1.
The mark [13] stands for this setting: ATCC19606, read-out: MIC 90 in (μg/mL), resistant mutant colony 2.
Setting [14] is: ATCC19606, read-out: MIC 90 in (μg/mL), resistant mutant colony 4.

In brackets after ≈: the same amount, converted by molar mass. Read-outs that look alike come from different tables or passages of the source.

As for `CC1(C)S[C@@H]2[C@H](NC(=O)[C@H](N)c3ccccc3)C(=O)N2[C@H]1C(=O)O` [Ampicillin], the MIC in assay [1] stood at 5 µg/mL (≈ 14.3 µM); in assay [2], 5 µg/mL (≈ 14.3 µM); in assay [3] it was 2.5 µg/mL (≈ 7.15 µM); in assay [4], 3.3 µg/mL (≈ 9.44 µM); in assay [5], 4.2 µg/mL (≈ 12 µM); in assay [6] it was 4.2 µg/mL (≈ 12 µM). In addition, the MIC in assay [7] was 5 µg/mL (≈ 14.3 µM).

As usually defined, the IC50 is the midpoint of a concentration-inhibition curve. Regarding `C[C@H]1COc2c(N3CCN(C)CC3)c(F)cc3c(=O)c(C(=O)O)cn1c23` [Levofloxacin], the IC50 on E. coli gyrase came out at 390 nM; on E. coli topoisomerase IV it was 13 µM. Further, the MIC in assay [1] was 0.03 µg/mL (≈ 0.083 µM); in assay [2], 0.13 µg/mL (≈ 0.36 µM); in assay [3] it was 0.02 µg/mL (≈ 0.0553 µM); in assay [4], 0.25 µg/mL (≈ 0.692 µM); in assay [5] it was 0.02 µg/mL (≈ 0.0553 µM); in assay [6], 0.08 µg/mL (≈ 0.221 µM). The MIC in [7] is 0.04 µg/mL (≈ 0.111 µM).

`C[C@@H](O)[C@H]1C(=O)N2C(C(=O)O)=C(S[C@@H]3CN[C@H](C(=O)N(C)C)C3)[C@H](C)[C@H]12` [Meropenem]: the MIC90 was determined as 0.3 µg/mL (≈ 0.782 µM) in the assay on A. baumannii ATCC 19606 (setting [9]), 0.15 µg/mL (≈ 0.391 µM) in assay [8] (setting [10]) and 0.6 µg/mL (≈ 1.56 µM) in assay [8] (setting [11]).

Regarding `CO[C@@H]1[C@@H](OC(N)=O)[C@@H](O)[C@H](Oc2ccc3c(O)c(NC(=O)c4ccc(O)c(CC=C(C)C)c4)c(=O)oc3c2C)OC1(C)C` [Novobiocin], the MIC90 in the assay with A. baumannii ATCC 19606 (setting [9]) turned out to be 10 µg/mL (≈ 16.3 µM).

For `CO[C@H]1/C=C/O[C@@]2(C)Oc3c(C)c(O)c4c(O)c(c(/C=N/N5CCN(C)CC5)c(O)c4c3C2=O)NC(=O)/C(C)=C\C=C\[C@H](C)[C@H](O)[C@@H](C)[C@@H](O)[C@@H](C)[C@H](OC(C)=O)[C@@H]1C` [Rifampicin], the MIC90 in the assay on A. baumannii ATCC 19606 (setting [9]) was 2.5 µg/mL (≈ 3.04 µM); in assay [8] (setting [12]), 1.25 µg/mL (≈ 1.52 µM).

On to `CC[C@H]1OC(=O)[C@@](C)(F)C(=O)[C@H](C)[C@@H](O[C@@H]2O[C@H](C)C[C@H](N(C)C)[C@H]2O)[C@](C)(OC)C[C@@H](C)C(=O)[C@H](C)[C@H]2N(CCCCn3cc(-c4cccc(N)c4)nn3)C(=O)O[C@]12C` [Solithromycin], for which the MIC90 worked out at 2.5 µg/mL (≈ 2.96 µM) with A. baumannii ATCC 19606 (ATCC19606, read-out: MIC 90 in (μg/mL), A. baumannii ATCC 19606 (WT)); 5 µg/mL (≈ 5.92 µM) in assay [8] (setting [12]); 2.5 µg/mL (≈ 2.96 µM) in assay [8] (setting [13]); 2.5 µg/mL (≈ 2.96 µM) in assay [8] (setting [10]); 5 µg/mL (≈ 5.92 µM) in assay [8] (setting [14]); 2.5 µg/mL (≈ 2.96 µM) in [8] (setting [11]).

In the case of `COc1cc([C@@H]2c3cc4c(cc3[C@@H](O[C@@H]3O[C@@H]5CO[C@@H](c6cccs6)O[C@H]5[C@H](O)[C@H]3O)[C@H]3COC(=O)[C@H]23)OCO4)cc(OC)c1O` [Teniposide], the values for the concentration for half-maximal inhibition (IC50) on Human topo IIα (read-out: IC50 Human topo IIα decatenation) and at Human topo IIß were 18 ± 5 µM and 92 µM, respectively.

For `CN(C)[C@@H]1C(O)=C(C(N)=O)C(=O)[C@@]2(O)C(O)=C3C(=O)c4c(O)cccc4[C@@](C)(O)[C@H]3C[C@@H]12` [Tetracycline], the MIC90 in the assay on A. baumannii ATCC 19606 (setting [9]) is 0.3 µg/mL (≈ 0.675 µM); in assay [8] (setting [12]) it was 0.6 µg/mL (≈ 1.35 µM); in assay [8] (setting [13]), 0.6 µg/mL (≈ 1.35 µM); in assay [8] (setting [10]), 0.6 µg/mL (≈ 1.35 µM); in assay [8] (setting [14]), 0.6 µg/mL (≈ 1.35 µM); in [8] (setting [11]) it was 0.6 µg/mL (≈ 1.35 µM).

On to `C[C@@H]1CN2c3c(cc4c(N5C(=O)OC[C@@H]5C)noc4c3F)CC3(C(=O)NC(=O)NC3=O)[C@H]2[C@H](C)O1` [Zoliflodacin], for which the IC50 is 800 nM against E. coli gyrase, 27 ± 12 µM on E. coli topoisomerase IV and greater than 200 µM against Human topo IIα.
